From a melting point compilation (Tetko et al.; mined from patent text by program, amines drawn as free bases though some values may be those of a salt)

| SMILES | melting point |
| --- | --- |
| CCOC(=O)c1nn(-c2ccc(Cl)cc2Cl)c(-c2ccc(Br)cc2)c1C | 133 °C |
| CCc1c(OC)nc(OC)nc1C(=O)c1cc(C)cc(C=CC#N)c1 | 165 to 166 °C |
| Cc1cccc(Cl)c1Nc1ccccc1CC(=O)O | 124 to 125 °C |
| CCCCCC1CCc2c(c(F)c(F)c3oc(C)cc23)O1 (stereo unspecified) | 61 °C |
| COc1cc2nc(Cl)n3cnnc3c2cc1OC | 269 to 271 °C |
| CN(C)c1nc(N)c(-c2nc(N)no2)nc1Cl | 210 to 211 °C |
| CCCCCCCCCCCCOC(=O)Cc1nc(-c2ccc(Cl)cc2)oc1-c1ccco1 | 69.5 to 71 °C |
| CC(=O)c1ccc(S(=O)(=O)NCCc2ccc(CC(=O)O)cc2)cc1 | 193 to 194 °C |
| CN(N=[N+](C)[O-])c1ccccc1 | 55 to 56 °C |
| CC1=C(C(=O)OCCCN(C)Cc2ccccc2)C(c2ccccc2C(F)(F)F)c2c(ccnc2OC(C)C)N1 (stereo unspecified) | 143 to 144 °C |
| Nc1nc(N)c2ncn([C@H]3C=C[C@@H](O)C3)c2n1 (racemic) | 167 to 170 °C |
| CC(C)Cn1c(=O)c(-c2c(Cl)cccc2Cl)cc2cnc(N)nc21 | 193 to 195 °C |
| COc1ccc(-c2sc3ncc(CO)c(O)c3c2C)cc1 | > 300 °C |
| O=C(O)c1cc(NC(=O)C(CS)Cc2ccccc2)ccc1O (stereo unspecified) | 206 to 209 °C |
| CCC(OC)(c1cccc(O)c1)c1nccs1 (stereo unspecified) | 101 to 103 °C |
| CCN(C(=O)Cc1c(F)cccc1F)C(c1cnccc1C(F)(F)F)C(C)C (stereo unspecified) | 122 °C |
| O=[N+]([O-])c1ccc2nc3c(nc2c1)CCCC3 | 175 to 178 °C |
| CCOC(=O)C1(Sc2ccccc2)Cc2ccc(N(C)C)cc2NC1=O (stereo unspecified) | 134 to 139 °C |
| Cc1c(CCl)oc2ccc([N+](=O)[O-])cc12 | 141 to 142 °C |
| CCC(=O)NC(Cc1ccccc1)c1ccccn1 (stereo unspecified) | 91 to 93 °C |
| CCCc1c(C(C)C)nn2ccccc12 | 41 to 42 °C |
| O=S(=O)(c1cc(Cl)ccc1O)N1CCCC1 | 101 to 102 °C |
| CSc1ccc(C(=O)CBr)cc1F | 70 to 71 °C |
| NS(=O)(=O)c1ccsc1CO | 85 to 89 °C |
| CCOC(=O)C1=C(C)NC(C)=C(C(=O)OCC(F)(F)F)C1c1cccc([N+](=O)[O-])c1 (stereo unspecified) | 192 °C |
| Cc1cc(-n2cnn(Cc3ccc(C(F)(F)F)cc3)c2=O)sc1C(=O)NCc1cccnc1 | 176 to 178 °C |

| SMILES | melting point |
| --- | --- |
| CN(C)CCCN1C(=O)C(NC(=O)Nc2ccccc2)C(=O)N(CC23CC4CC(CC(C4)C2)C3)c2ccccc21 (stereo unspecified) | 138 to 140 °C |
| O=C(O)c1ccccc1Oc1ccc(C(F)(F)F)cc1NS(=O)(=O)c1ccccc1 | 177 °C |
| COc1ccccc1Nc1nc(-c2ccccn2)cs1 | 165 to 166 °C |
| Cc1nc(NCc2ccccc2)sc1C(=O)NCc1ccccc1 | 169 to 172 °C |
| CC(=O)Nc1ccc(NC(=O)C=C2CC(C(=O)O)Nc3cc(Cl)cc(Cl)c32)cc1 (racemic) | 185 °C |
| COc1ccc2c(c1)CCC1C2CCC2(C)C1CCC2N(C=O)CCC(C)C (stereo unspecified) | 106 to 107 °C |
| CN(C)S(=O)(=O)c1cc(C(=O)Cl)ccc1Cl | 103 to 105 °C |
| CN1C(=O)C(C)(C)C(=O)N(C)c2cc(N)ccc21 | 221 to 222 °C |
| CCCc1c(C(=O)NCc2ccc3cc(OCC(=O)OC)ccc3c2)cnn1-c1ccccc1 | 145 to 146 °C |
| CC(C)c1nc(-c2ccccc2)c(F)c(-c2ccc(F)cc2)c1CO | 164 to 165 °C |
| CC(NC(=O)CCCBr)c1ccccc1 (stereo unspecified) | 62 to 63 °C |
| CC(C)n1nc(C(Br)C(=O)c2ccccc2)ccc1=O (stereo unspecified) | 98 to 100 °C |
| NC1=NC(c2ccc(OC(F)(F)F)cc2)(c2ccc(F)c(N3C=C(F)C=NC3)c2)C2=NCCCN12 (stereo unspecified) | 94 to 105 °C |
| CN(C)Cc1ccc(C2(O)CCC3(CC2)OCCO3)cc1 | 84 to 86 °C |
| COc1cc(C=O)cc(F)c1OC | 51 to 53 °C |
| CCN1Cc2cccnc2N(c2cccc(C(F)(F)F)c2)C1=O | 155 to 157 °C |
| O=C(CCc1ccccc1)Nc1ccc(Br)cc1 | 149 to 151 °C |
| O=C(/C=C/c1ccc(C(=O)Nc2cccc(Nc3nc(-c4cccnc4)cs3)c2)s1)NOC1CCCCO1 (stereo unspecified) | 170 °C |
| COC(=O)c1ccc(N(C)C)cn1 | 100 to 103 °C |
| C[C@H](Nc1nc(Nc2cccc(NS(C)(=O)=O)c2)nc2[nH]cnc12)C(C)(C)C | 150 to 153 °C |
| OC1(c2ccccc2)c2ccccc2C2=NC3CCCCC3N21 (stereo unspecified) | 176 to 178 °C |
| CC1(C)[C@@H](CN2CC[C@@H](O)C2)CC[C@@]1(C)NCC(=O)N1C[C@@H](F)C[C@H]1C#N | 130 to 135 °C |
| CS(=O)(=O)c1ccc(Oc2cc(OCc3cccc(Cl)n3)c3[nH]c(C(N)=O)cc3c2)cc1 | 259 to 260 °C |
| O=C(O)CCc1ccccc1CNC(=O)C1Cc2ccccc2N1S(=O)(=O)c1ccc(-c2cccc(C(F)(F)F)c2)cc1 (stereo unspecified) | 94 °C |
| Nc1ccc(C(=O)c2ccncc2)cc1[N+](=O)[O-] | 294 to 295 °C |
| CC(C)=C1OC(=O)N(c2cc(OC3CCCC3)c(Cl)cc2F)C1=N | 131 to 133 °C |

| SMILES | melting point |
| --- | --- |
| O=C(Nc1ccc(Cl)nc1)N1CCc2ccccc2CC1 | 170 to 172 °C |
| CCC(CC)c1ccc(CO)c2nc(Oc3c(C)cc(Cl)cc3Cl)n(C)c12 | 141 to 143 °C |
| CC(C)(C)OC(=O)N[C@@H](CC(=O)O)C(=O)OC(C)(C)C | 97 to 99 °C |
| NC(CN1C(=O)c2ccccc2C1=O)=NO | 192 to 195 °C |
| O=C(OCc1ccccc1)c1cc2cc(Br)ccc2nn1 | 171 °C |
| CSc1ccc(C2NC(C(=O)O)C(C)(C)S2)cc1 (stereo unspecified) | 150 to 152 °C |
| O=C(Cc1ccccc1Cl)N1CCCc2ncc3ccccc3c21 | 176 to 178 °C |
| COC(=O)c1cc([N+](=O)[O-])cn1C | 122 to 124 °C |
| O=C(Nc1cccc(I)c1)C1CC1 | 112 °C |
| CCN1CCc2ccc(Nc3ncc(Cl)c(N[C@@H]4CCCC[C@H]4NC(=O)C(F)(F)F)n3)cc2CC1 | 165 °C |
| CC(C)(C)c1cc(C(=O)N2CCN(c3ccc(N)cc3)CC2)cc(C(C)(C)C)c1O | 221 to 222 °C |
| CN(C)CCc1cccc(OCCCNc2nc(N)nn2C)c1 | 81 to 82 °C |
| CCC=Cc1nc2ccccc2n1Cc1ccc(C#N)cc1 | 125 °C |
| CCn1cc(C2(c3cccc(-c4cccnc4F)c3)N=C(N)N(C)C2=O)cc1C=O (stereo unspecified) | 152 to 156 °C |
| Brc1ccc(OCCCCCCN2CCN(c3nccs3)CC2)cc1 | 66 to 68 °C |
| CCN(CC)CCOc1ccn2nc(-c3ccccc3)c(-c3ccc(=O)n(C(C)C)n3)c2c1 | 92.5 to 94.5 °C |
| Clc1cc(-c2ccc3c(c2)CCO3)nc2ccccc12 | 130 to 132 °C |
| CN1CCC(OC2c3ccccc3C(=O)N2c2ccc3ccc(Cl)nc3n2)CC1 (stereo unspecified) | 204 °C |
| Cn1c(-c2cccs2)cnc1[C@H](Cc1ccccn1)N(C=O)c1cc2cc(Cl)ccc2o1 | 70 to 74 °C |
| CCOC(=O)CNC(=O)CCCCCNC(=O)c1ccc(F)cc1 | 121 to 122 °C |
| CCCc1c(OCCCCCCc2ccc(C(C)(C)C)c(OC)c2OC)ccc(C(=O)OCc2ccccc2)c1O | 106 to 108 °C |
| CCCC(O)c1cccc(NC(=O)OCc2ccccc2)c1 (stereo unspecified) | 103 to 106 °C |
| NC(=O)c1cncc(N)c1 | 263 to 264 °C |
| COP(=O)(OC)C(C)C(NC(=O)OCc1ccccc1)C(=O)N[C@@H](Cc1ccccc1)[C@H](O)C(=O)N1C[C@@H](Cl)C[C@H]1C(=O)NC(C)(C)C (stereo partly specified) | 93 to 100 °C |
| O=C(O)CCCC(=O)N[C@@H](Cc1ccc(-c2ccccc2)cc1)C(=O)NCCCCNc1ncccn1 | 228 °C |
| Cc1ccc(C(=O)O)c(OCc2ccc(OCCc3nc(-c4ccccc4)oc3C)cc2)c1 | 116 to 118 °C |

| SMILES | melting point |
| --- | --- |
| COc1ccc(N2CCN(c3c(C)c(C)c4c(c3C)CC(C)O4)CC2)c(OC)c1 (stereo unspecified) | 142 to 144 °C |
| CCCCCCCCCCCCCCOc1ccc(CC(=O)NCc2ccccn2)cc1 | 86 to 87 °C |
| CCOC(=O)CC1(NC(C)=O)Cc2ccccc2C1 | 72 to 73 °C |
| CCCC1(C)C(=O)N(COC(=O)c2c(Cl)cccc2Cl)S(=O)(=O)N1C (stereo unspecified) | 93 to 95 °C |
| C=CC(c1ccc(F)cc1)c1c(C)c(NC=O)c(C)c(C)c1O (stereo unspecified) | 168 to 170 °C |
| CNC(=C[N+](=O)[O-])NCCSCc1[nH]cnc1C | 141 to 143 °C |
| COc1ccc(CCc2ccccn2)cc1OCCCCCc1ccccc1 | 59 to 62 °C |
| CC(C)OCCOc1c(-c2ccc(S(C)(=O)=O)cc2)cnn(-c2ccc(F)c(F)c2)c1=O | 105 to 107 °C |
| CN1C(=O)CC(c2ccc(CO)cc2)C1C(O)c1ccc(-c2ccccc2)s1 (stereo unspecified) | 205 °C |
| CC(C)(C)OOC(C)(CCC(=O)NNC(=O)c1ccccc1)OOC(C)(C)C | 147 to 149 °C |
| Cc1oc(-c2ccccc2)nc1COc1ccc(CCl)cn1 | 86 to 87 °C |
| CC(C)(C)C1=CC(=CC#Cc2ccc(C(=O)O)c(O)c2)C=C(C(C)(C)C)C1=O | 203 °C |
| CCCCOc1ccc(S(=O)(=O)C2(C(=O)NO)CCN(Cc3ccccn3)CC2)cc1 | 118 °C |
| Cc1cc(OC(=O)c2ccccc2)c2ccccc2c1OCc1ccccc1 | 179 to 180 °C |
| COc1ccc2c(c1)c1c3c(c(-c4ccccc4)cc1n2CCC(N)=O)C(=O)NC3=O | 266 to 270 °C |
| Cc1cc(F)ccc1-c1nc(NCCO)nc2c1CCC(=O)N2c1ccccc1F | 120 to 124 °C |
| c1cc(Cn2ccnc2)c2nccnc2c1 | 121 °C |
| OCc1c(Cl)ccc2nnsc12 | 138 to 140 °C |
| Nc1ncc(C(F)(F)F)cc1[N+](=O)[O-] | 110 to 112 °C |
| Cc1ccccc1C(Oc1cc(OCc2ccc3c(c2)OCO3)ccc1C#N)C(=O)O (racemic) | 52 to 56 °C |
| O=C1N(c2c(Cl)cccc2Cl)Cc2cnc(NC3CCCCC3)nc2N1c1ccccc1 | 258 to 259 °C |
| Oc1ccc(N=Cc2ccccc2)cc1 | 182 to 183 °C |
| CC(Oc1ccc(-c2ccc(C#N)c(C#N)c2)cc1)C(O)CCc1cccnc1 (stereo unspecified) | 136 to 137 °C |
